Data set [1] has as its target T1, CYP2C8.3 (Homo sapiens, UniProt P10632, K399R/R139K).
T1 sequence (P10632 1-490 R139K/K399R): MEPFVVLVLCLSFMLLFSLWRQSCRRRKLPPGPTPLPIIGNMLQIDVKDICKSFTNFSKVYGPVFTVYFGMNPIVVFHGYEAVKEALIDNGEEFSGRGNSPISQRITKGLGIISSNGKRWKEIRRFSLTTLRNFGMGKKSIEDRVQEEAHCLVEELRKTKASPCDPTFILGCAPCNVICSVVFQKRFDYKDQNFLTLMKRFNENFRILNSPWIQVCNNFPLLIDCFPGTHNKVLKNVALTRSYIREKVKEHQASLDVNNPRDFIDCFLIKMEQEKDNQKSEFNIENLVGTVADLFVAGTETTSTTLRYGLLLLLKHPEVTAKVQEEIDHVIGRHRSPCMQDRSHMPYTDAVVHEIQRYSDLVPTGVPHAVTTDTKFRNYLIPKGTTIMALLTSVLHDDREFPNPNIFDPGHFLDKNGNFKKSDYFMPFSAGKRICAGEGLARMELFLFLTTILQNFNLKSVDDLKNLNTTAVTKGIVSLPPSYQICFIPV
Briefly: Equilibrium spectral binding of ligands and redox cofactors to purified CYP2C8.3. The following applies: for % change in Bmax, first binding event / % change in Bmax, second binding event / % change in Bmax, redox partner binding: CYP2C8.3 in comparison to CYP2C8.1; for Kd: read-out: KD of redox partner, spectral binding of redox partner to CYP2C8.3.

Data set [2] deals with T2, P450 reductase - CYP2C8.3 complex (Homo sapiens, UniProt P10632, K399R/R139K).
T2 sequence (P10632 1-490 R139K/K399R): T1 sequence (P10632 1-490 R139K/K399R)
The following applies: probe reaction of each substrate.

Data set [3] has as its target T3, CYP2C8.1 (Homo sapiens, UniProt P10632).
T3 sequence (P10632 1-490): T1 sequence (P10632 1-490 R139K/K399R) with K139R, R399K
The following applies: ref [8], cited from earlier work; for Clint: kcat/Km.

For another data set, the system named is CYP2C8. The following applies: excess of cytochrome b5 (up to 10:1).
Data set [4] addresses T1, CYP2C8.3. The following applies: ref [8], cited from earlier work; for Clint: kcat/Km.
The target in data set [5] is T1, CYP2C8.3.
For data set [6], the target named is T3, CYP2C8.1. The following applies: for Clint: kcat/Km.
For data set [7], the target named is T1, CYP2C8.3. Conditions: for Clint: kcat/Km.
In data set [8] the target is T1, CYP2C8.3. The following applies: absence of cytochrome b5 in the reconstitution system; CPR:CYP2C8 2:1.
The target in data set [9] is T3, CYP2C8.1. Briefly: Equilibrium spectral binding of ligands and redox cofactors to purified CYP2C8.1. Conditions: read-out: KD of redox partner; spectral binding of redox partner to CYP2C8.1.
Substrate in data set [10]: CC(=O)O[C@H]1C(=O)[C@@]2(C)[C@H]([C@H](OC(=O)c3ccccc3)[C@]3(O)C[C@H](OC(=O)[C@H](O)[C@@H](NC(=O)c4ccccc4)c4ccccc4)C(C)=C1C3(C)C)[C@]1(OC(C)=O)CO[C@@H]1C[C@@H]2O
Substrate in data set [11]: CCN(CC)Cc1cc(Nc2ccnc3cc(Cl)ccc23)ccc1O
Substrate in data set [12]: CN(CCOc1ccc(CC2SC(=O)NC2=O)cc1)c1ccccn1
Substrate in data set [13]: CCN(CC)Cc1cc(Nc2ccnc3cc(Cl)ccc23)ccc1O
The source holds these as a separate data set.

Substrate in data set [14]: CN(CCOc1ccc(CC2SC(=O)NC2=O)cc1)c1ccccn1
The source holds these as a separate data set.

Setting [15] is: CER hydroxylation (M23 formation).

Numbering of substitutions follows the chain as printed. Names may count otherwise. “And” between values parts separate entries of the source, which are not always exact repeats. Equal entries are not always repeated. Structures can show the parent of a compound that is named as a salt. Where two headings read alike, the source gives them in different places.

Regarding `COCc1c(C(C)C)nc(C(C)C)c(/C=C/[C@@H](O)C[C@@H](O)CC(=O)O)c1-c1ccc(F)cc1` [CER, (3R,5S,6E)-7-[4-(4-Fluorophenyl)-5-(methoxymethyl)-2,6-bis(1-methylethyl)-3-pyridinyl]-3,5-dihydroxy-6-heptenoic Acid Sodium Salt], the “% change in Bmax, first binding event” value on CYP2C8.3 [1] is given as “+45%”. Also, at CYP2C8.3 [1], the “% change in Bmax, second binding event” value is “+533%”. For the same molecule, in [2], the “decrease of Km, red of CYP2C8.3 in comparison to CYP2C8.1” value is recorded as “did not vary”. Besides, the Clint at CYP2C8.1 [3] (CER O-demethylation) is 0.024 µM⁻¹ min⁻¹; at CYP2C8.1 [3] (CER hydroxylation) it was 0.0096 µM⁻¹ min⁻¹; on CYP2C8.3 [4] (CER O-demethylation), 0.11 µM⁻¹ min⁻¹; at CYP2C8.3 [4] (CER hydroxylation) it was 0.047 µM⁻¹ min⁻¹. The Km is 24 ± 3 µM at CYP2C8.1 [3] (CER O-demethylation), 23 ± 2 µM on CYP2C8.1 [3] (setting [15]), 13 ± 2 µM on CYP2C8.3 [4] (CER O-demethylation) and 13 ± 2 µM at CYP2C8.3 [4] (setting [15]). Besides, the kcat at CYP2C8.1 [3] (CER O-demethylation) was 0.57 ± 0.02 nmol nmol P450^−1 min^−1; on CYP2C8.1 [3] (setting [15]), 0.22 ± 0.01 nmol nmol P450^−1 min^−1; at CYP2C8.3 [4] (CER O-demethylation), 1.47 ± 0.06 (**) nmol nmol P450^−1 min^−1; at CYP2C8.3 [4] (setting [15]), 0.61 ± 0.03 (**) nmol nmol P450^−1 min^−1. In addition, the “inhibition of CYP-activity by cytochrome b5” value in the data set with CYP2C8 is listed as “less evident”.

For `CC(=O)O[C@H]1C(=O)[C@@]2(C)[C@H]([C@H](OC(=O)c3ccccc3)[C@]3(O)C[C@H](OC(=O)[C@H](O)[C@@H](NC(=O)c4ccccc4)c4ccccc4)C(C)=C1C3(C)C)[C@]1(OC(C)=O)CO[C@@H]1C[C@@H]2O` [PAC, paclitaxel], on CYP2C8.3 [1], the “% change in Bmax, first binding event” value is “+79%” and the “% change in Bmax, second binding event” value is −14%. On CYP2C8.3 [5], this molecule returned an inhibition constant Ki of 103000 nM. In addition, the substrate inhibition entry at CYP2C8.1 [6] (CYP2C8.1) is listed as “negligible”. Also, the “fold higher Clint (kcat/Km) for CYP2C8.3 compared to CYP2C8.1” value at CYP2C8.3 [7] (DEAQ formation, p-hydroxy and N-de-methyl RG, PAC 6α-hydroxylation) is given as 1.5 fold. This molecule also registered a Clint on CYP2C8.3 [7] (PAC 6α-hydroxylation) of 0.16 µM⁻¹ min⁻¹. For the same molecule, in [2], the “decrease of Km, red of CYP2C8.3 in comparison to CYP2C8.1” value is reported as roughly 7 fold. Moreover, the “activity of CYP2C8.3 compared to CYP2C8.1” value at CYP2C8.3 [8] is “less active”. Also, in the data set with CYP2C8, the “inhibition of CYP-activity by cytochrome b5” value is “strong inhibition”.

At CYP2C8.3 [5], `CN(CCOc1ccc(CC2SC(=O)NC2=O)cc1)c1ccccn1` (centres unmarked) [RG, rosiglitazone] showed a Ki of 150000 nM. Besides, the Clint amounted to 0.13 µM⁻¹ min⁻¹ on CYP2C8.1 [6] (RG N-de-methylation), 0.11 µM⁻¹ min⁻¹ on CYP2C8.1 [6] (RG p-hydroxylation), 0.33 µM⁻¹ min⁻¹ on CYP2C8.3 [7] (RG N-de-methylation) and 0.29 µM⁻¹ min⁻¹ at CYP2C8.3 [7] (RG p-hydroxylation).

B1: CPR: Rat cytochrome P450 reductase, expressed; redox partner of CYP2C8 (protein, UniProt P00388 2-678, looked up)
NADPH--cytochrome P450 …: GDSHEDTSATMPEAVAEEVSLFSTTDMVLFSLIVGVLTYWFIFRKKKEEIPEFSKIQTTAPPVKESSFVEKMKKTGRNIIVFYGSQTGTAEEFANRLSKDAHRYGMRGMSADPEEYDLADLSSLPEIDKSLVVFCMATYGEGDPTDNAQDFYDWLQETDVDLTGVKFAVFGLGNKTYEHFNAMGKYVDQRLEQLGAQRIFELGLGDDDGNLEEDFITWREQFWPAVCEFFGVEATGEESSIRQYELVVHEDMDVAKVYTGEMGRLKSYENQKPPFDAKNPFLAAVTANRKLNQGTERHLMHLELDISDSKIRYESGDHVAVYPANDSALVNQIGEILGADLDVIMSLNNLDEESNKKHPFPCPTTYRTALTYYLDITNPPRTNVLYELAQYASEPSEQEHLHKMASSSGEGKELYLSWVVEARRHILAILQDYPSLRPPIDHLCELLPRLQARYYSIASSSKVHPNSVHICAVAVEYEAKSGRVNKGVATSWLRAKEPAGENGGRALVPMFVRKSQFRLPFKSTTPVIMVGPGTGIAPFMGFIQERAWLREQGKEVGETLLYYGCRRSDEDYLYREELARFHKDGALTQLNVAFSREQAHKVYVQHLLKRDREHLWKLIHEGGAHIYVCGDARNMAKDVQNTFYDIVAEFGPMEHTQAVDYVKKLMTKGRYSLDVWS
Turning to B1, the dissociation constant Kd with CYP2C8.1 [9] is 29.4 ± 0.2 nM. For the same molecule, in the data set with CYP2C8.3 [1], the “% change in Bmax, redox partner binding” value is given as “+76%” and the dissociation constant (Kd) was 20.7 ± 0.2 nM.

B2: Cytochrome b5: expressed cytochrome b5; redox partner of CYP2C8 (protein, UniProt P00167 2-134, looked up)
Cytochrome b5: AEQSDEAVKYYTLEEIQKHNHSKSTWLILHHKVYDLTKFLEEHPGGEEVLREQAGGDATENFEDVGHSTDAREMSKTFIIGELHPDDRPKLNKPPETLITTIDSSSSWWTNWVIPAISAVAVALMYRLYMAED
Regarding B2, in the data set with CYP2C8.1 [9], the Kd amounted to 34.4 ± 0.4 nM. In addition, in the data set with CYP2C8.3 [1], the “% change in Bmax, redox partner binding” value was “+298%” and the Kd was 16.8 ± 0.3 nM.

B3: CYP2C8.1 (Homo sapiens) (protein)
chain: T1 sequence (P10632 1-490 R139K/K399R) with K139R, R399K
Turning to B3, the Km was 3.7 ± 0.6 µM in [10]; 3.0 ± 0.4 µM in data set [11]; 4.0 ± 0.8 µM and 2.9 ± 0.6 µM in [12]. For the same molecule, the kcat stood at 0.00483 s⁻¹ in [10] and 0.095 ± 0.00333 s⁻¹ in data set [11]. The figures for the specificity constant (kcat/Km) in data set [10] and in data set [11] were 1830 M⁻¹ s⁻¹ and 31700 M⁻¹ s⁻¹, respectively.

B4: CYP2C8.3 (Homo sapiens; K399R/R139K) (protein)
chain: T1 sequence (P10632 1-490 R139K/K399R)
As to B4, in data set [10], the Km is 4.7 ± 0.7 (−) µM, the kcat amounted to 0.0127 s⁻¹ and the kcat/Km came out at 2670 M⁻¹ s⁻¹. In data set [13], the Km amounted to 7.5 ± 0.5 µM, the kcat was 0.497 ± 0.0117 s⁻¹ and the kcat/Km turned out to be 66700 M⁻¹ s⁻¹. Moreover, the Km in [14] is 10.2 ± 0.9 µM and 8.0 ± 0.6 µM.

The record behind these values is paper PMC3159548 (Biochemical pharmacology, 2011).
